{"source": "ChEMBL document CHEMBL1275276", "about": "“Analysis of physico-chemical properties of substrates of ABC and MFS multidrug transporters of pathogenic Candida albicans” (2010)", "key": {"[1]": {"system": "Saccharomyces cerevisiae", "assay": "Antifungal activity against yeast AD1-8u expressing Candida albicans CaCdr1p by agar disk diffusion assay", "format": "functional"}, "[2]": {"system": "Candida albicans", "assay": "Binding affinity to Candida albicans CaMdr1p expressed in yeast AD1-8u"}, "[3]": {"system": "Saccharomyces cerevisiae", "assay": "Antifungal activity against yeast AD1-8u expressing Candida albicans CaMdr1p by agar disk diffusion assay; further: test concentration or dose not given here", "format": "functional"}, "[4]": {"system": "Candida albicans", "assay": "Binding affinity to Candida albicans CaCdr1p expressed in yeast AD1-8u"}}, "note": "The source made the active and inactive calls. How the calls were made is not given here. Wherever IZ is given: test concentration or dose not given here."}
{"smiles": "O=C1c2c(O)ccc(O)c2C(=O)c2c(NCCNCCO)ccc(NCCNCCO)c21", "note": "[MITOXANTRONE]", "values": [{"measurement": "inhibition zone (IZ)", "setting": "[1]", "value": 0.2, "unit": "cm"}, {"measurement": "Activity", "setting": "[2]", "value": "Active"}, {"measurement": "inhibition zone (IZ)", "setting": "[3]", "value": 0.3, "unit": "cm"}, {"measurement": "Activity", "setting": "[4]", "value": "inactive"}]}
{"smiles": "CON(C)C(=O)Nc1ccc(Cl)c(Cl)c1", "note": "[LINURON]", "values": [{"measurement": "inhibition zone (IZ)", "setting": "[1]", "value": 0.8, "unit": "cm"}, {"measurement": "Activity", "setting": "[2]", "value": "Active"}, {"measurement": "inhibition zone (IZ)", "setting": "[3]", "value": 0.6, "unit": "cm"}, {"measurement": "Activity", "setting": "[4]", "value": "Active"}]}
{"smiles": "NC[C@H]1O[C@H](O[C@H]2[C@H](O)[C@@H](O[C@H]3O[C@H](CO)[C@@H](O)[C@H](N)[C@H]3O)[C@H](N)C[C@@H]2N)[C@H](O)[C@@H](O)[C@@H]1O", "note": "[KANAMYCIN]", "values": [{"measurement": "inhibition zone (IZ)", "setting": "[1]", "value": 0.1, "unit": "cm"}, {"measurement": "Activity", "setting": "[2]", "value": "Active"}, {"measurement": "inhibition zone (IZ)", "setting": "[3]", "value": 0.3, "unit": "cm"}, {"measurement": "Activity", "setting": "[4]", "value": "inactive"}]}
{"smiles": "c1ccc(CNc2ncnc3[nH]cnc23)cc1", "note": "[6-BENZYLAMINOPURINE]", "values": [{"measurement": "inhibition zone (IZ)", "setting": "[1]", "value": 0, "unit": "cm"}, {"measurement": "Activity", "setting": "[2]", "value": "inactive"}, {"measurement": "inhibition zone (IZ)", "setting": "[3]", "value": 0, "unit": "cm"}, {"measurement": "Activity", "setting": "[4]", "value": "inactive"}]}
{"smiles": "Nc1nc(=O)[nH]cc1F", "note": "[FLUCYTOSINE]", "values": [{"measurement": "inhibition zone (IZ)", "setting": "[1]", "value": 0, "unit": "cm"}, {"measurement": "Activity", "setting": "[2]", "value": "inactive"}, {"measurement": "inhibition zone (IZ)", "setting": "[3]", "value": 0, "unit": "cm"}, {"measurement": "Activity", "setting": "[4]", "value": "inactive"}]}
{"smiles": "C[C@@H](c1ncncc1F)[C@](O)(Cn1cncn1)c1ccc(F)cc1F", "note": "[VORICONAZOLE]", "values": [{"measurement": "inhibition zone (IZ)", "setting": "[1]", "value": 1.9, "unit": "cm"}, {"measurement": "Activity", "setting": "[2]", "value": "Active"}, {"measurement": "inhibition zone (IZ)", "setting": "[3]", "value": 0.8, "unit": "cm"}, {"measurement": "Activity", "setting": "[4]", "value": "Active"}]}
{"smiles": "OCCN1CCN(CCCN2c3ccccc3Sc3ccc(C(F)(F)F)cc32)CC1", "note": "[FLUPHENAZINE]", "values": [{"measurement": "inhibition zone (IZ)", "setting": "[1]", "value": 0.3, "unit": "cm"}, {"measurement": "Activity", "setting": "[2]", "value": "inactive"}, {"measurement": "inhibition zone (IZ)", "setting": "[3]", "value": 0.2, "unit": "cm"}, {"measurement": "Activity", "setting": "[4]", "value": "Active"}]}
{"smiles": "COc1cccc2c1C(=O)c1c(O)c3c(c(O)c1C2=O)C[C@@](O)(C(=O)CO)C[C@@H]3O[C@H]1C[C@H](N)[C@H](O)[C@H](C)O1", "note": "[DOXORUBICIN]", "values": [{"measurement": "inhibition zone (IZ)", "setting": "[1]", "value": 0.4, "unit": "cm"}, {"measurement": "Activity", "setting": "[2]", "value": "Active"}, {"measurement": "inhibition zone (IZ)", "setting": "[3]", "value": 0.3, "unit": "cm"}, {"measurement": "Activity", "setting": "[4]", "value": "Active"}]}
{"smiles": "CC(=O)O[C@H]1C(=O)[C@@]2(C)[C@H]([C@H](OC(=O)c3ccccc3)[C@]3(O)C[C@H](OC(=O)[C@H](O)[C@@H](NC(=O)c4ccccc4)c4ccccc4)C(C)=C1C3(C)C)[C@]1(OC(C)=O)CO[C@@H]1C[C@@H]2O", "note": "[PACLITAXEL]", "values": [{"measurement": "inhibition zone (IZ)", "setting": "[1]", "value": 0, "unit": "cm"}, {"measurement": "Activity", "setting": "[2]", "value": "inactive"}, {"measurement": "inhibition zone (IZ)", "setting": "[3]", "value": 0, "unit": "cm"}, {"measurement": "Activity", "setting": "[4]", "value": "inactive"}]}
{"smiles": "COC(=O)C1=C(C)NC(C)=C(C(=O)OCCCN2CCC(c3ccccc3)(c3ccccc3)CC2)[C@H]1c1cccc([N+](=O)[O-])c1", "note": "[NIGULDIPINE]", "values": [{"measurement": "inhibition zone (IZ)", "setting": "[1]", "value": 0.5, "unit": "cm"}, {"measurement": "Activity", "setting": "[2]", "value": "inactive"}, {"measurement": "inhibition zone (IZ)", "setting": "[3]", "value": 0.2, "unit": "cm"}, {"measurement": "Activity", "setting": "[4]", "value": "Active"}]}
{"smiles": "CC(=O)Nc1c2sscc-2n(C)c1=O", "note": "[THIOLUTIN]", "values": [{"measurement": "inhibition zone (IZ)", "setting": "[1]", "value": 0, "unit": "cm"}, {"measurement": "Activity", "setting": "[2]", "value": "Active"}, {"measurement": "inhibition zone (IZ)", "setting": "[3]", "value": 0.7, "unit": "cm"}, {"measurement": "Activity", "setting": "[4]", "value": "inactive"}]}
{"smiles": "CC[C@@]1(O)C(=O)OCc2c1cc1n(c2=O)Cc2cc3c(CN(C)C)c(O)ccc3nc2-1", "note": "[TOPOTECAN]", "values": [{"measurement": "inhibition zone (IZ)", "setting": "[1]", "value": 0.5, "unit": "cm"}, {"measurement": "Activity", "setting": "[2]", "value": "inactive"}, {"measurement": "inhibition zone (IZ)", "setting": "[3]", "value": 0.2, "unit": "cm"}, {"measurement": "Activity", "setting": "[4]", "value": "Active"}]}
{"smiles": "C=C[C@H]1CN2CC[C@H]1C[C@@H]2[C@@H](O)c1ccnc2ccc(OC)cc12", "note": "[QUINIDINE]", "values": [{"measurement": "inhibition zone (IZ)", "setting": "[1]", "value": 0.8, "unit": "cm"}, {"measurement": "Activity", "setting": "[2]", "value": "Active"}, {"measurement": "inhibition zone (IZ)", "setting": "[3]", "value": 0.8, "unit": "cm"}, {"measurement": "Activity", "setting": "[4]", "value": "Active"}]}
{"smiles": "O=P1(N(CCCl)CCCl)NCCCO1", "note": "(stereo unspecified) [CYCLOPHOSPHAMIDE ANHYDROUS]", "values": [{"measurement": "inhibition zone (IZ)", "setting": "[1]", "value": 0, "unit": "cm"}, {"measurement": "Activity", "setting": "[2]", "value": "inactive"}, {"measurement": "inhibition zone (IZ)", "setting": "[3]", "value": 0, "unit": "cm"}, {"measurement": "Activity", "setting": "[4]", "value": "inactive"}]}
{"smiles": "COc1ccc(C[C@H]2NC[C@H](O)[C@H]2OC(C)=O)cc1", "note": "[ANISOMYCIN]", "values": [{"measurement": "inhibition zone (IZ)", "setting": "[1]", "value": 0.9, "unit": "cm"}, {"measurement": "Activity", "setting": "[2]", "value": "Active"}, {"measurement": "inhibition zone (IZ)", "setting": "[3]", "value": 0.7, "unit": "cm"}, {"measurement": "Activity", "setting": "[4]", "value": "Active"}]}
{"smiles": "OC(Cn1cncn1)(Cn1cncn1)c1ccc(F)cc1F", "note": "[FLUCONAZOLE]", "values": [{"measurement": "inhibition zone (IZ)", "setting": "[1]", "value": 2.3, "unit": "cm"}, {"measurement": "Activity", "setting": "[2]", "value": "Active"}, {"measurement": "inhibition zone (IZ)", "setting": "[3]", "value": 1.6, "unit": "cm"}, {"measurement": "Activity", "setting": "[4]", "value": "Active"}]}
{"smiles": "N#CC(C#N)=NNc1cccc(Cl)c1", "note": "[CARBONYL CYANIDE M-CHLOROPHENYLHYDRAZONE]", "values": [{"measurement": "inhibition zone (IZ)", "setting": "[1]", "value": 0, "unit": "cm"}, {"measurement": "Activity", "setting": "[2]", "value": "inactive"}, {"measurement": "inhibition zone (IZ)", "setting": "[3]", "value": 0, "unit": "cm"}, {"measurement": "Activity", "setting": "[4]", "value": "inactive"}]}
{"smiles": "O=C(N[C@H](CO)[C@H](O)c1ccc([N+](=O)[O-])cc1)C(Cl)Cl", "note": "[CHLORAMPHENICOL]", "values": [{"measurement": "inhibition zone (IZ)", "setting": "[1]", "value": 0.8, "unit": "cm"}, {"measurement": "Activity", "setting": "[2]", "value": "inactive"}, {"measurement": "inhibition zone (IZ)", "setting": "[3]", "value": 0, "unit": "cm"}, {"measurement": "Activity", "setting": "[4]", "value": "Active"}]}
{"smiles": "C[C@@H]1O[C@@H](O[C@H]2C[C@@H](O)[C@]3(CO)[C@H]4[C@H](O)C[C@]5(C)[C@@H](C6=CC(=O)OC6)CC[C@]5(O)[C@@H]4CC[C@]3(O)C2)[C@H](O)[C@H](O)[C@H]1O", "note": "[OUABAIN]", "values": [{"measurement": "inhibition zone (IZ)", "setting": "[1]", "value": 0, "unit": "cm"}, {"measurement": "Activity", "setting": "[2]", "value": "inactive"}, {"measurement": "inhibition zone (IZ)", "setting": "[3]", "value": 0, "unit": "cm"}, {"measurement": "Activity", "setting": "[4]", "value": "inactive"}]}
{"smiles": "COCCOC(=O)C1=C(C)NC(C)=C(C(=O)OC(C)C)C1c1cccc([N+](=O)[O-])c1", "note": "(stereo unspecified) [NIMODIPINE]", "values": [{"measurement": "inhibition zone (IZ)", "setting": "[1]", "value": 0, "unit": "cm"}, {"measurement": "Activity", "setting": "[2]", "value": "inactive"}, {"measurement": "inhibition zone (IZ)", "setting": "[3]", "value": 0, "unit": "cm"}, {"measurement": "Activity", "setting": "[4]", "value": "inactive"}]}
{"smiles": "C[C@@H]1C[C@H]2[C@@H]3CCC4=CC(=O)C=C[C@]4(C)[C@@]3(F)[C@@H](O)C[C@]2(C)[C@@]1(O)C(=O)CO", "note": "[DEXAMETHASONE]", "values": [{"measurement": "inhibition zone (IZ)", "setting": "[1]", "value": 0.9, "unit": "cm"}, {"measurement": "Activity", "setting": "[2]", "value": "inactive"}, {"measurement": "inhibition zone (IZ)", "setting": "[3]", "value": 0, "unit": "cm"}, {"measurement": "Activity", "setting": "[4]", "value": "Active"}]}
{"smiles": "c1ccc(C(c2ccccc2)(c2ccccc2)c2ncc[nH]2)cc1", "note": "[TRITYL IMIDAZOLE]", "values": [{"measurement": "inhibition zone (IZ)", "setting": "[1]", "value": 1.3, "unit": "cm"}, {"measurement": "Activity", "setting": "[2]", "value": "inactive"}, {"measurement": "inhibition zone (IZ)", "setting": "[3]", "value": 0, "unit": "cm"}, {"measurement": "Activity", "setting": "[4]", "value": "Active"}]}
{"smiles": "CN(Cc1cnc2nc(N)nc(N)c2n1)c1ccc(C(=O)N[C@@H](CCC(=O)O)C(=O)O)cc1", "note": "[METHOTREXATE]", "values": [{"measurement": "inhibition zone (IZ)", "setting": "[1]", "value": 0.1, "unit": "cm"}, {"measurement": "Activity", "setting": "[2]", "value": "Active"}, {"measurement": "inhibition zone (IZ)", "setting": "[3]", "value": 0.8, "unit": "cm"}, {"measurement": "Activity", "setting": "[4]", "value": "inactive"}]}
{"smiles": "COc1cc([C@@H]2c3cc4c(cc3[C@@H](O[C@@H]3O[C@@H]5CO[C@@H](C)O[C@H]5[C@H](O)[C@H]3O)[C@H]3COC(=O)[C@H]23)OCO4)cc(OC)c1O", "note": "[ETOPOSIDE]", "values": [{"measurement": "inhibition zone (IZ)", "setting": "[1]", "value": 1.5, "unit": "cm"}, {"measurement": "Activity", "setting": "[2]", "value": "Active"}, {"measurement": "inhibition zone (IZ)", "setting": "[3]", "value": 0.3, "unit": "cm"}, {"measurement": "Activity", "setting": "[4]", "value": "Active"}]}
